What was measured:
[1] = system: exon 7-containing SMN protein; assay: Western-blot analysis (H2 and H7 antibodies) of SMN protein in SMA lymphoid cell lines; format: cell-based, human
Description: Western-blot analysis. Rabbits were immunized with synthetic peptides containing either human SMN amino acids 279-288 from exon 7 or amino acids 72-84 from exon 2. Specific antibodies (H7 and H2 respectively) were purified from rabbit crude sera with an EAH-sepharose 4B column (Pharmacia) according to the manufacturer's instructions.
Protein samples, prepared from treated and untreated SMA lymphoid cells, were loaded on a 5% polyacrylamide stacking gel above a 12% separating gel, and the gel was run with a discontinuous buffer using Laemmli's method. After electrophoresis, proteins were transferred electrophoretically to polyvinyl difluoride membranes (Millipore Corp., Marlborough, Mass., USA). After the transfer, the membranes were blocked in TBST (50 mM Tris.HCl, pH 7.5, 150 mM NaCl, 0.05% Tween 20) containing 4% BSA (bovine serum albumin) for 2 hours at room temperature. Blots were incubated with a 1:800 dilution of anti-SMN exon 2 (H2) or anti-SMN exon 7 (H7) antibody in TBST for 2 hours at room temperature. […] The secondary antibody was detected with a 1.5% solution of 5-bromo-4-chloro-3-indoyl phosphate and 3% nitro blue tetrazolium in a developing buffer (100 mM NaCl, 5 mM MgCl2, 100 mM Tris.HCl, pH 9.5).

[2] = system: SMA-like mice; assay: Treatment of types 2 and 3 SMA-like mice (hSMN2 Smn-/-) via drinking water; format: in vivo, mouse
Protocol: To generate hSMN2 Smn^−/− mice, hSMN2 Smn^+/− mice were crossed to Smn^+/− mice. Progeny lacking the murine SMN locus were identified by genotyping. The presence of the hSMN2 transgene was also confirmed.
The effect of hydroxyurea on the symptoms of SMA-like mice were investigated. Hydroxyurea was administered to ten SMA-like mice with type 2 symptoms and ten SMA-like mice with type 3 symptoms. These mice were identified at birth by genotype and phenotype. Hydroxyurea was administered to the SMA-like mice as 1 mg/ml to 2 mg/ml solution available ad libitum in their drinking water. The amount of hydroxyurea taken by SMA-like mice was estimated to be approximate 5-10 mg/day. The survival time of hydroxyurea-treated type 2 SMA-like mice was longer, about 4 to 5 days longer on average, than untreated mice.
The effect of hydroxyurea administration on the tail phenotype of SMA-like mice was also monitored. The tails of untreated types 2 and 3 SMA-like mice have decreased diameter of muscle fibers, atrophy of muscle bundles, group atrophy and subcutaneous edema (Hsieh-Li et al. (2000) supra).

[3] = system: human SMA patients; assay: Treatment of human SMA patients, oral; format: in vivo
[4] = absorbed from the gastrointestinal tract; cited from earlier work

NC(=O)NO [hydroxyurea]
intact SMN protein in cytosolic and nuclear fractions ([1]; after 3 hours stimulation with 5 ng/ml to 500 μg/ml): increase | levels of exon 7-containing SMN protein ([1]; lymphoid cell lines from different types of SMA patients, varying amounts, vs untreated controls): increase | tail phenotype ([2]; most of types 2 and 3 SMA-like mice, after treatment): nearly normal phenotype | frequency of chronic necrosis originating at the tip of the tail ([2]; treated SMA-like mice, 50% for untreated): 2% | exon 7-containing SMN protein levels in multiple tissues, including spinal cord motor neurons ([2]; western blot and immunohistochemical studies, treated SMA-like mice): elevated | full-length SMN mRNA transcript in peripheral mononuclear cells ([3]; SMA patients with SMN1 deletion, oral 15 to 25 mg/kg/day): elevated | walking gait ([3]; one type II patient, improved to a type III phenotype): improved | clinical symptoms of all three patients ([3]; oral 15 to 25 mg/kg/day): improved | muscle strength ([3]; other type II patient): improved muscle strength | respirator dependence ([3]; type I patient, on respirator before treatment): respirator free | time to enter the serum after ingestion [4]: ≤ 2 h
